Assay results: paper PMC9776540, “Therapeutic Potential of a Water-Soluble Silver-Diclofenac Coordination Polymer on 3D Pancreatic Cancer Spheroids” (Journal of Medicinal Chemistry, 2022)

Columns and labels:
[1] = test system: A549; assay: MTT cytotoxicity assay (IC50); assay type: cell-based, human; conditions: Homo sapiens, A549, 72 h
Procedure: (§1) MCF7 cell line (human breast adenocarcinoma, morphology: epithelial-like, ATCC: HTB-22), A549 cell […]
(§2) keratinocyte, morphology: epidermal, CSL Cell Lines Service GmbH); were cultured in Dulbecco’s Modified Eagle’s Medium (DMEM, Corning) with phenol red, supplemented with 10% fetal bovine serum (FBS) and with 1% streptomycin/penicillin. […]
(§3) from metastatic site: brain, ATCC: HTB-81) and MCR-5 cell line (primary line of human pulmonary […]
(§4) 10% fetal bovine serum (FBS). Cultures were incubated at 37 °C under a humidified atmosphere containing 5% CO2. Cells were transferred using a solution containing 0.05% trypsin and 0.5 mM EDTA.
(§5) All media and other ingredients were purchased from ALAB, Poland.
(§6) Cytotoxicity was assessed by MTT assay performed according the protocols described elsewhere.S1 In brief, 1×10^4 cells per well, seeded in 96-well flat bottom microtiter plate, were incubated with the tested compounds (in the appropriate media) at various range of concentrations for 24 h. After that time, solutions of compounds were washed out, cells were washed three times with PBS and fresh medium was applied. After next 72 h cell viability was determined using the Hill equation (Origin 9.0) with regard to the untreated cells (control), where y0 – untreated cell control (which was set to 100% viability), y100 – a lysis control (where the cells were treated with 0.5% triton X-100 was set to 0% […]
(§7) [c] at which the viability of the cells reaches 50%, H – the Hill coefficient (describing cooperativity):
(§8) Each compound concentration was tested in five replicates and repeated at least three times.
(§9) Determined values of IC50 are given as mean + S.D. (Standard Deviation).
(§10) Cisplatin was tested as a reference anticancer drug. […]

[2] = test system: DU-145; assay: MTT cytotoxicity assay (IC50); assay type: cell-based, human; conditions: Homo sapiens, DU-145, 72 h
Procedure: as §1, §2, §3, §4, §5, §6, §7, §8, §9, §10

[3] = test system: HaCat; assay: MTT cytotoxicity assay (IC50); assay type: cell-based, human; conditions: Homo sapiens, HaCaT, 72 h
Procedure: as §1, §2, §3, §4, §5, §6, §7, §8, §9, §10

[4] = test system: MCF7; assay: MTT cytotoxicity assay (IC50); assay type: cell-based, human; conditions: Homo sapiens, MCF7, 72 h
Procedure: as §1, §2, §3, §4, §5, §6, §7, §8, §9, §10

[5] = test system: MRC5; assay: MTT cytotoxicity assay (IC50); assay type: cell-based, human; conditions: Homo sapiens, MRC5, 72 h
Procedure: as §1, §2, §3, §4, §5, §6, §7, §8, §9, §10

[6] = test system: PANC-1; assay: MTT cytotoxicity assay (IC50); assay type: cell-based, human; conditions: Homo sapiens, PANC-1, 72 h
Procedure: as §1, §2, §3, §4, §5, §6, §7, §8, §9, §10

[7] = test system: A549; assay: MTT survival test, surviving fraction (Table S3); assay type: cell-based, human
Procedure: (§11) 24, and 72 h. After each incubation time, the cells were washed with PBS. Then, fresh medium (supplemented with 10% FSB) was added, and the cells were incubated under standard conditions for another 24 h (6h + 24h, 24h + 24h, 72h + 24h). After this time, the MTT survival test was done. Surviving fraction given in % was estimated with relation to untreated cells. In the case of 6h + 24h and 24h + 24h approaches, the cells were seeded at 10 000 cells per well, while in the case of 72h + 24h at […]

[8] = test system: DU-145; assay: MTT survival test, surviving fraction (Table S3); assay type: cell-based, human
Procedure: as §11

[9] = test system: HaCat; assay: MTT survival test, surviving fraction (Table S3); assay type: cell-based, human
Procedure: as §11

[10] = test system: MCF-7; assay: MTT survival test, surviving fraction (Table S3); assay type: cell-based, human
Procedure: as §11

[11] = test system: PANC-1; assay: MTT survival test, surviving fraction (Table S3); assay type: cell-based, human
Procedure: as §11

[12] = test system: PANC-1 cells; conditions: PANC-1, 1 at IC50, others at molar ratio 1:1:1, 72 h after treatment
Procedure: as §1, §2, §3, §4
All media and other ingredients were purchased from ALAB, Poland. […]
Acridine Orange (OA) and Propidium Iodide PI Staining
AO is a nucleic acid-binding fluorophore that is cell membrane permeable and suitable for selective staining of nucleated living cells. PI is a nucleic acid-binding dye that is impermeable to live cells and suitable for staining dead or dying nucleated cells. All live, nucleated cells fluoresce green due to AO, and dead, nucleated cells are stained with both AO and PI and fluoresce red. For analysis of 1-induced

[13] = test system: PANC-1 cells; assay: Mitochondrial membrane potential, JC-10 assay; assay type: cell-based, human; conditions: PANC-1, 4 h, 1 at IC50, others at molar ratio 1:1:1
Procedure: As an important indicator of mitochondrial dysfunction, the variation in mitochondrial membrane potential was monitored by the JC-10 probe (Figure 6C) aiming to understand the importance of mitochondrial disorder during the cancer cell death induced by 1.
Detection of Mitochondrial Membrane Potential (Δψ)
Mitochondrial membrane potential (MMP) depletion was determined by JC-10 Assay (Life
Technologies, USA). […] After 24h
ciprofloxacin (10 µg/mL) as positive and negative control, respectively. After that, cells were incubated
for 4 h at standard condition (37 °C, 5% CO2). Then, they were washed twice with PBS buffer and
incubated with JC-10 for 1 h. Afterwards, emission was measured at two different excitation
wavelengths ( exc = 540 nm,  em = 570 nm) and ( exc = 485 nm,  em = 530 nm). Results are presented as
the intensity ratio of red to green emission (mean + S.D.).

[14] = test system: pBR322 plasmid; assay: DNA strand break analysis, agarose gel electrophoresis; assay type: biochemical; conditions: pBR322, 24 h, even at high concentration (500 μM)
Procedure: Then, the interaction between DNA and diclofenac, PTA, or 1 was evaluated by the gel electrophoresis of pBR322 plasmid to determine an ability to cause double- and/or single-strand DNA damages (Figure 6D). The double-strand damage may result in the appearance of different forms of DNA (linear form III and relaxed form II), which can be quantified by densitometry analysis (Figure 6E).
DNA Strand Break Analysis
The ability of 1, PTA and diclofenac to induce single- or double-strand breaks in plasmid DNA was tested
with the pBR322 plasmid (c = 0.5 mg/mL). All compounds were dissolved in water (c = 1 µM-500 µM).
After 1 h incubation at 37 °C, the reaction mixtures (20 μL) were mixed with 3 μL of loading buffer
(bromophenol blue in 30% glycerol) and loaded on 1% agarose gels, containing EB, in TBE buffer (90
mM Tris–borate, 20 mM EDTA, pH = 8.0). Gel electrophoresis was performed at a constant voltage of
100 V (4 V/cm) for 60 min. The gel was photographed and processed with a Digital Imaging System
(Syngen Biotech). For the densitometric analysis the UltraQuant 6.0 program was used.

Structure (SMILES): C1N2CN3CN1CP(C2)C3 [PTA, 1,3,5-triaza-7-phosphaadamantane]
- IC50 [1]: 1170 ± 14.7 µM
- IC50 [2]: 1230 ± 21.9 µM
- IC50 [3]: 826 ± 8.76 µM
- IC50 [4]: 1471 ± 14.4 µM
- IC50 [5]: 867 ± 18.3 µM
- IC50 [6]: 1290 ± 52.6 µM
- surviving fraction ([7]; A549, 6h + 24h, dil. 10 000x (stocks: diclofenac 0.918, PTA 0.483, AgNO3 0.326 mg/mL)): 96.8 ± 10.8%
- surviving fraction ([7]; A549, 6h + 24h, dil. 100x (stocks: diclofenac 0.918, PTA 0.483, AgNO3 0.326 mg/mL)): 77.5 ± 9.8%
- surviving fraction ([7]; A549, 6h + 24h, dil. 1000x (stocks: diclofenac 0.918, PTA 0.483, AgNO3 0.326 mg/mL)): 82.4 ± 12.9%
- surviving fraction ([7]; A549, 24h + 24h, dil. 10 000x (stocks: diclofenac 0.918, PTA 0.483, AgNO3 0.326 mg/mL)): 98.6 ± 5.9%
- surviving fraction ([7]; A549, 24h + 24h, dil. 100x (stocks: diclofenac 0.918, PTA 0.483, AgNO3 0.326 mg/mL)): 77.2 ± 12.8%
- surviving fraction ([7]; A549, 24h + 24h, dil. 1000x (stocks: diclofenac 0.918, PTA 0.483, AgNO3 0.326 mg/mL)): 88.2 ± 8.7%
- surviving fraction ([7]; A549, 72h + 24h, dil. 10 000x (stocks: diclofenac 0.918, PTA 0.483, AgNO3 0.326 mg/mL)): 92.7 ± 8.6%
- surviving fraction ([7]; A549, 72h + 24h, dil. 100x (stocks: diclofenac 0.918, PTA 0.483, AgNO3 0.326 mg/mL)): 67.3 ± 8.6%
- surviving fraction ([7]; A549, 72h + 24h, dil. 1000x (stocks: diclofenac 0.918, PTA 0.483, AgNO3 0.326 mg/mL)): 79.8 ± 7.5%
- surviving fraction ([8]; Du-145, 6h + 24h, dil. 10 000x (stocks: diclofenac 0.918, PTA 0.483, AgNO3 0.326 mg/mL)): 106.9 ± 9.2%
- surviving fraction ([8]; Du-145, 6h + 24h, dil. 100x (stocks: diclofenac 0.918, PTA 0.483, AgNO3 0.326 mg/mL)): 78.4 ± 11.8%
- surviving fraction ([8]; Du-145, 6h + 24h, dil. 1000x (stocks: diclofenac 0.918, PTA 0.483, AgNO3 0.326 mg/mL)): 89.3 ± 8.8%
- surviving fraction ([8]; Du-145, 24h + 24h, dil. 10 000x (stocks: diclofenac 0.918, PTA 0.483, AgNO3 0.326 mg/mL)): 99.2 ± 7.2%
- surviving fraction ([8]; Du-145, 24h + 24h, dil. 100x (stocks: diclofenac 0.918, PTA 0.483, AgNO3 0.326 mg/mL)): 73.8 ± 12.6%
- surviving fraction ([8]; Du-145, 24h + 24h, dil. 1000x (stocks: diclofenac 0.918, PTA 0.483, AgNO3 0.326 mg/mL)): 89.2 ± 5.8%
- surviving fraction ([8]; Du-145, 72h + 24h, dil. 10 000x (stocks: diclofenac 0.918, PTA 0.483, AgNO3 0.326 mg/mL)): 101.2 ± 12.4%
- surviving fraction ([8]; Du-145, 72h + 24h, dil. 100x (stocks: diclofenac 0.918, PTA 0.483, AgNO3 0.326 mg/mL)): 62.3 ± 8.7%
- surviving fraction ([8]; Du-145, 72h + 24h, dil. 1000x (stocks: diclofenac 0.918, PTA 0.483, AgNO3 0.326 mg/mL)): 84.2 ± 8.2%
- surviving fraction ([9]; 6h + 24h, dil. 10 000x (stocks: diclofenac 0.918, PTA 0.483, AgNO3 0.326 mg/mL)): 109.7 ± 6.3%
- surviving fraction ([9]; 6h + 24h, dil. 100x (stocks: diclofenac 0.918, PTA 0.483, AgNO3 0.326 mg/mL)): 99.7 ± 4.9%
- surviving fraction ([9]; 24h + 24h, dil. 10 000x (stocks: diclofenac 0.918, PTA 0.483, AgNO3 0.326 mg/mL)): 98.1 ± 12.1%
- surviving fraction ([9]; 24h + 24h, dil. 100x (stocks: diclofenac 0.918, PTA 0.483, AgNO3 0.326 mg/mL)): 92.2 ± 5.3%
- surviving fraction ([9]; 24h + 24h, dil. 1000x (stocks: diclofenac 0.918, PTA 0.483, AgNO3 0.326 mg/mL)): 96.7 ± 9.7%
- surviving fraction ([9]; 72h + 24h, dil. 10 000x (stocks: diclofenac 0.918, PTA 0.483, AgNO3 0.326 mg/mL)): 100.6 ± 8.1%
- surviving fraction ([9]; 72h + 24h, dil. 100x (stocks: diclofenac 0.918, PTA 0.483, AgNO3 0.326 mg/mL)): 91.2 ± 6.5%
- surviving fraction ([9]; 72h + 24h, dil. 1000x (stocks: diclofenac 0.918, PTA 0.483, AgNO3 0.326 mg/mL)): 98.2 ± 8.4%
- surviving fraction ([10]; MCF-7, 6h + 24h, dil. 10 000x (stocks: diclofenac 0.918, PTA 0.483, AgNO3 0.326 mg/mL)): 88.6 ± 7.5%
- surviving fraction ([10]; MCF-7, 6h + 24h, dil. 100x (stocks: diclofenac 0.918, PTA 0.483, AgNO3 0.326 mg/mL)): 78.6 ± 13.1%
- surviving fraction ([10]; MCF-7, 6h + 24h, dil. 1000x (stocks: diclofenac 0.918, PTA 0.483, AgNO3 0.326 mg/mL)): 89.6 ± 4.8%
- surviving fraction ([10]; MCF-7, 24h + 24h, dil. 10 000x (stocks: diclofenac 0.918, PTA 0.483, AgNO3 0.326 mg/mL)): 100.2 ± 6.6%
- surviving fraction ([10]; MCF-7, 24h + 24h, dil. 100x (stocks: diclofenac 0.918, PTA 0.483, AgNO3 0.326 mg/mL)): 70.9 ± 8.8%
- surviving fraction ([10]; MCF-7, 24h + 24h, dil. 1000x (stocks: diclofenac 0.918, PTA 0.483, AgNO3 0.326 mg/mL)): 82.7 ± 11.5%
- surviving fraction ([10]; MCF-7, 72h + 24h, dil. 10 000x (stocks: diclofenac 0.918, PTA 0.483, AgNO3 0.326 mg/mL)): 102.5 ± 6.0%
- surviving fraction ([10]; MCF-7, 72h + 24h, dil. 100x (stocks: diclofenac 0.918, PTA 0.483, AgNO3 0.326 mg/mL)): 84.7 ± 8.9%
- surviving fraction ([10]; MCF-7, 72h + 24h, dil. 1000x (stocks: diclofenac 0.918, PTA 0.483, AgNO3 0.326 mg/mL)): 88.6 ± 7.9%
- surviving fraction ([11]; PANC-1, 6h + 24h, dil. 10 000x (stocks: diclofenac 0.918, PTA 0.483, AgNO3 0.326 mg/mL)): 89.7 ± 12.5%
- surviving fraction ([11]; PANC-1, 6h + 24h, dil. 100x (stocks: diclofenac 0.918, PTA 0.483, AgNO3 0.326 mg/mL)): 74.7 ± 9.8%
- surviving fraction ([11]; PANC-1, 6h + 24h, dil. 1000x (stocks: diclofenac 0.918, PTA 0.483, AgNO3 0.326 mg/mL)): 86.5 ± 6.4%
- surviving fraction ([11]; PANC-1, 24h + 24h, dil. 10 000x (stocks: diclofenac 0.918, PTA 0.483, AgNO3 0.326 mg/mL)): 107.5 ± 6.8%
- surviving fraction ([11]; PANC-1, 24h + 24h, dil. 100x (stocks: diclofenac 0.918, PTA 0.483, AgNO3 0.326 mg/mL)): 78.7 ± 8.3%
- surviving fraction ([11]; PANC-1, 24h + 24h, dil. 1000x (stocks: diclofenac 0.918, PTA 0.483, AgNO3 0.326 mg/mL)): 85.2 ± 9.5%
- surviving fraction ([11]; PANC-1, 72h + 24h, dil. 10 000x (stocks: diclofenac 0.918, PTA 0.483, AgNO3 0.326 mg/mL)): 98.9 ± 8.9%
- surviving fraction ([11]; PANC-1, 72h + 24h, dil. 100x (stocks: diclofenac 0.918, PTA 0.483, AgNO3 0.326 mg/mL)): 70.8 ± 6.7%
- surviving fraction ([11]; PANC-1, 72h + 24h, dil. 1000x (stocks: diclofenac 0.918, PTA 0.483, AgNO3 0.326 mg/mL)): 83.4 ± 5.1%
- cytotoxicity seen by AO/PI staining [12]: did not induce visible cytotoxicity
- change of mitochondrial membrane potential (570/530 nm ratio of JC-10 fluorescence intensity) [13]: significant decrease
- degradation of plasmid DNA [14]: no degradation of DNA
